Experimental data published in ChEMBL document CHEMBL1140276, “Synthesis of 4(5)-phenylimidazole-based analogues of sphingosine-1-phosphate and FTY720: discovery of potent S1P1 receptor agonists” (Bioorg Med Chem Lett, 2005).

Assays:
[1] = biological target: T1, Sphingosine 1-phosphate receptor 4 (Homo sapiens) (UniProt O95977); experiment: Maximal efficacy against sphingosine 1-phosphate receptor 4 determined by a [c-35S]-GTP binding assay
T1 sequence (whole entry): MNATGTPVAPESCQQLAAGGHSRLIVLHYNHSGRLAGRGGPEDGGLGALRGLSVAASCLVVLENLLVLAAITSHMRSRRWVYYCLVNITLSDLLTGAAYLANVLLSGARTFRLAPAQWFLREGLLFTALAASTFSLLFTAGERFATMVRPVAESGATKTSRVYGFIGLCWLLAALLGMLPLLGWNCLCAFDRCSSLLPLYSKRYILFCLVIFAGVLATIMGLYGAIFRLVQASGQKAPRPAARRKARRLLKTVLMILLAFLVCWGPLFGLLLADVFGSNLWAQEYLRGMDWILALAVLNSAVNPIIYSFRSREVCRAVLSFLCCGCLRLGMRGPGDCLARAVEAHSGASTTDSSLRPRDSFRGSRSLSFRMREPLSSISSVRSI

[2] = biological target: T2, Sphingosine 1-phosphate receptor 3 (Homo sapiens, UniProt Q99500); experiment: Maximal efficacy against sphingosine 1-phosphate receptor 3 determined by a [c-35S]-GTP binding assay
[3] = biological target: T3, Sphingosine 1-phosphate receptor 5 (Homo sapiens, UniProt Q9H228); experiment: Maximal efficacy against sphingosine 1-phosphate receptor 5 determined by a [c-35S]-GTP binding assay
[4] = biological target: T4, Sphingosine 1-phosphate receptor 2 (Homo sapiens, UniProt O95136); experiment: Maximal efficacy against sphingosine 1-phosphate receptor 2 determined by a [c-35S]-GTP binding assay
[5] = biological target: T5, Sphingosine 1-phosphate receptor 1 (Homo sapiens, UniProt P21453); experiment: Maximal efficacy against sphingosine-1-phosphate receptor 1 determined by a [c-35S]-GTP binding assay
[6] = biological target: T3, Sphingosine 1-phosphate receptor 5; experiment: Effective concentration against sphingosine 1-phosphate receptor 5 determined by a [c-35S]-GTP binding assay
[7] = biological target: T6, Sphingosine 1-phosphate receptor 4 (Homo sapiens, UniProt O95977); experiment: Effective concentration against sphingosine 1-phosphate receptor 4 determined by a [c-35S]-GTP binding assay
T6 sequence (O95977 whole entry): T1 sequence (whole entry)

[8] = biological target: T2, Sphingosine 1-phosphate receptor 3; experiment: Effective concentration against sphingosine 1-phosphate receptor 3 determined by a [c-35S]-GTP binding assay
[9] = biological target: T5, Sphingosine 1-phosphate receptor 1; experiment: Effective concentration against sphingosine-1-phosphate receptor 1 determined by a [c-35S]-GTP binding assay
[10] = biological target: T4, Sphingosine 1-phosphate receptor 2; experiment: Effective concentration against sphingosine 1-phosphate receptor 2 determined by a [c-35S]-GTP binding assay
[11] = biological target: T4, Sphingosine 1-phosphate receptor 2; experiment: Maximal efficacy against sphingosine 1-phosphate receptor 2 determined by a [c-35S]-GTP binding assay;
[12] = biological target: T4, Sphingosine 1-phosphate receptor 2; experiment: Maximal efficacy against sphingosine 1-phosphate receptor 2 determined by a [c-35S]-GTP binding assay; no agonist activity
[13] = biological target: T1, Sphingosine 1-phosphate receptor 4 (Homo sapiens); experiment: Maximal efficacy against sphingosine 1-phosphate receptor 4 determined by a [c-35S]-GTP binding assay; no agonist activity
[14] = biological target: T2, Sphingosine 1-phosphate receptor 3; experiment: Maximal efficacy against sphingosine 1-phosphate receptor 3 determined by a [c-35S]-GTP binding assay; no agonist activity

T3 sequence (Q9H228 whole entry): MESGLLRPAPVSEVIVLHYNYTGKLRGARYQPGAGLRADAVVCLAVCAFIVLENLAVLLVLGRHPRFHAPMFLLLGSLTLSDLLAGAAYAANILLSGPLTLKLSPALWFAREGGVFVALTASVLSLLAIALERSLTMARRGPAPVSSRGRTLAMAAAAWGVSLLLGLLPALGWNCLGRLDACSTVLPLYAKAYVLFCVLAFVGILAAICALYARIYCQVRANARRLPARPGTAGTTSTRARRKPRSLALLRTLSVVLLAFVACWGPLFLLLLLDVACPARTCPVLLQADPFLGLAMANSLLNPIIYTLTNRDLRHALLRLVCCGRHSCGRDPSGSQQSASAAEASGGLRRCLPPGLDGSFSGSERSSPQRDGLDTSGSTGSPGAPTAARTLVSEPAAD
T2 sequence (Q99500 whole entry): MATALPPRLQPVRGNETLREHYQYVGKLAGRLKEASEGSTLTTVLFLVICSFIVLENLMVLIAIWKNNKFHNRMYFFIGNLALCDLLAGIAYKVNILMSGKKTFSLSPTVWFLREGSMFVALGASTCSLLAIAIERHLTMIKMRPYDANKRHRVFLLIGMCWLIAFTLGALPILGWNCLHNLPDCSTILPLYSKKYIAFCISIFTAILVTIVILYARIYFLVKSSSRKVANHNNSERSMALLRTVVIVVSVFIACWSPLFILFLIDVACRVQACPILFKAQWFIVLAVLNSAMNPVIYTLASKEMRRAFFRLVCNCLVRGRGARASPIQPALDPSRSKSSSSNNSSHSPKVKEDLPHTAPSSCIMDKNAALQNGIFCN
T4 sequence (O95136 whole entry): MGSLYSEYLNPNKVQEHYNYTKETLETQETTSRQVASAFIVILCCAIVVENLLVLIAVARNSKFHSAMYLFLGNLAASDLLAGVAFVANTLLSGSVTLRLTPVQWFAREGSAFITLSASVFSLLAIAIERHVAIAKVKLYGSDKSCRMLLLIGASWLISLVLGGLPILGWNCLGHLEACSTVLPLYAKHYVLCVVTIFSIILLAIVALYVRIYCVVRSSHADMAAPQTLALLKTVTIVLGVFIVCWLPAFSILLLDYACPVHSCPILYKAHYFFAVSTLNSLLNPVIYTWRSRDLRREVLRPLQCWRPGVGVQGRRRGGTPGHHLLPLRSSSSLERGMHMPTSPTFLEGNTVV
T5 sequence (P21453 whole entry): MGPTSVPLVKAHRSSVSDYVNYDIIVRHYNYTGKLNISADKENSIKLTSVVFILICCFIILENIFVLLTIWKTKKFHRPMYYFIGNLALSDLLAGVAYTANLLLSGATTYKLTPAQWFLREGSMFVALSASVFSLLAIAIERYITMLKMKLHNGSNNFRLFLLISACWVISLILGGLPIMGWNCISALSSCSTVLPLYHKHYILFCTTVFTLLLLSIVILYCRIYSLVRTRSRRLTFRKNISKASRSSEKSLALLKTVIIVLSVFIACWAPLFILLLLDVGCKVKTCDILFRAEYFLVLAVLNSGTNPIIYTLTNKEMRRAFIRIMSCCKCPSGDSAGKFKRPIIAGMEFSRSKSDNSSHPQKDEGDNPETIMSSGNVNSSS

Row | Emax [1] | Emax [2] | Emax [3] | Emax [4] | Emax [5] | EC50 [6] | EC50 [7] | EC50 [8] | EC50 [9] | EC50 [10] | Emax [11] | Emax [12] | Emax [13] | Emax [14] | Compound
1 | 0.9 | 0.38 | 0.83 | 0 | 0.98 | 860 nM | 7400 nM | 2700 nM | 2700 nM | – | – | – | – | – | CCCCCCCCc1ccc(-c2c[nH]c([C@H](N)CO)n2)cc1
2 | 0.78 | 0.5 | 0.56 | 0 | 1 | – | 41 nM | – | – | – | – | – | – | – | CCCCCCCCc1ccc(CCC(N)(CO)COP(=O)(O)O)cc1 (configuration not stated)
3 | 0.94 | 0.53 | 0.72 | 0 | 0.88 | 26 nM | 91 nM | 780 nM | 4.7 nM | – | – | – | – | – | CCCCCCCCc1ccc(-c2c[nH]c(C(C)(N)COP(=O)(O)O)n2)cc1 (configuration not stated)
4 | 0.79 | 0 | 0.48 | 0 | 0.66 | 6700 nM | 660 nM | – | 5100 nM | – | – | – | – | – | CCCCCCCCc1ccc(-c2c[nH]c(C(N)(CO)CO)n2)cc1
5 | 0.87 | 0.21 | 0.66 | 0.95 | 0.91 | 17 nM | 160 nM | 630 nM | 7.9 nM | 18 nM | – | – | – | – | CCCCCCCCc1ccc(-c2c[nH]c(C(N)(CO)COP(=O)(O)O)n2)cc1 (configuration not stated)
6 | 1 | 0.56 | 0.73 | 0 | 0.75 | 37 nM | 400 nM | 1700 nM | 7 nM | – | – | – | – | – | CCCCCCCCc1ccc(-c2c[nH]c([C@H](N)COP(=O)(O)O)n2)cc1
7 | 0.79 | 0.42 | 0.69 | – | 0.69 | 12 nM | 150 nM | 330 nM | 4 nM | – | 0 | – | – | – | CCCCCCCCc1ccc(-c2c[nH]c([C@@H](N)COP(=O)(O)O)n2)cc1
8 | – | – | 0 | – | 0 | – | – | – | – | – | – | 0 | 0 | 0 | CCCCCCCCc1ccc(-c2c[nH]c(C(C)(N)CO)n2)cc1 (configuration not stated)

Row | Compound | Emax [1] | Emax [2] | Emax [3] | Emax [4] | Emax [5] | EC50 [6] | EC50 [7] | EC50 [8] | EC50 [9] | EC50 [10] | Emax [11] | Emax [12] | Emax [13] | Emax [14]
9 | CCCCCCCCCCCCC/C=C/[C@@H](O)[C@@H](N)COP(=O)(O)O | 1 | 1 | 1 | 1 | 1 | – | – | – | – | – | – | – | – | –
10 | CCCCCCCCc1ccc(-c2c[nH]c(C(C)(N)COP(O)(O)=S)n2)cc1 (configuration not stated) | 0.68 | 0.44 | 0.6 | 0 | 0.87 | 51 nM | 170 nM | 1600 nM | 9.8 nM | – | – | – | – | –
11 | CCCCCCCCc1ccc(-c2c[nH]c(C(N)(CO)COP(O)(O)=S)n2)cc1 (configuration not stated) | 0.72 | 0.68 | 0.56 | 0 | 0.66 | 16 nM | 89 nM | 790 nM | 150 nM | – | – | – | – | –
12 | CCCCCCCCc1ccc(-c2c[nH]c([C@@H](N)COP(O)(O)=S)n2)cc1 | 0.82 | 0.45 | 0.82 | 0 | 0.67 | 29 nM | 190 nM | 690 nM | 6.4 nM | – | – | – | – | –
